This note sets out measurements from patent publication US5866583A, “Substituted 2,4-diaminopyrimidines” (Hoffmann-La Roche Inc., priority 1996, dated 1999).

Assay [1] has as its target T1, purified DHFR of the opportunistic pathogen P. carinii (Pneumocystis carinii, UniProt P16184).
T1 sequence (P16184 1-206): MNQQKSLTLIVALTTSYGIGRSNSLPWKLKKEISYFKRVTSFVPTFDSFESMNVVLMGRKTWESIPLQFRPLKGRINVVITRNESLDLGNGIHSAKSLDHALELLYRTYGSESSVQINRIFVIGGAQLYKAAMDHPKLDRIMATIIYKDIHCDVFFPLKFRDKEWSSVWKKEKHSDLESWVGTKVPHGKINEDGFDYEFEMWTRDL
In words: biochemical. Conditions: IC50 determined by means of a graph. An excerpt: (§1) The inhibition of this enzyme was taken as a measurement of the antibacterial activity.

The target of assay [2] is purified DHFR of the reference strain S. aureus ATCC 25923 (Staphylococcus aureus, UniProt P0A017). Briefly: Inhibition of purified DHFR of reference strain S. aureus ATCC 25923. The assay is classed as biochemical.
Description: as §1

In assay [3] the target is purified DHFR of the multiresistant strain S. aureus 157/4696 (Staphylococcus aureus, UniProt P13955). Briefly: Inhibition of purified DHFR of multiresistant strain S. aureus 157/4696. The assay is classed as biochemical.
Description: as §1

Consider `COc1cc(Cc2cnc(N)nc2N)cc(/C=C/C(=O)N2CCc3ccccc3C2c2ccccn2)c1OC` (racemic) [Example 3, (E)-(RS)-3-[5-(2,4-Diamino-pyrimidin-5-ylmethyl)-2,3-dimethoxy-phenyl]-1-(1-pyridin-2-yl-3,4-dihydro-1H-isoquinolin-2-yl)-propenone], for which the IC50 (in general, the midpoint of a concentration-inhibition curve) in assay [1] was 17000 nM; in assay [2] it was 9 nM; in assay [3] it was 9.5 nM.

As for `COc1ccc2c(c1)C(c1ccccn1)N(C(=O)/C=C/c1cc(Cc3cnc(N)nc3N)cc(OC)c1OC)CC2` (racemic) [Example 8, (E)-(RS)-3-[5-(2,4-Diamino-pyrimidin-5-ylmethyl)-2,3-dimethoxy-phenyl]-1-(7-methoxy-1-pyridin-2-yl-3,4-dihydro-1H-isoquinolin-2-yl)-propenone], the IC50 in assay [1] stood at 5000 nM; in assay [2], 5 nM; in assay [3] it was 9 nM.

With `COc1cc(Cc2cnc(N)nc2N)cc(/C=C/C(=O)N2CCc3ccccc3C2c2ccc(C)cc2)c1OC` (racemic) [Example 16, (E)-(RS)-3-[5-(2,4-Diamino-pyrimidin-5-ylmethyl)-2,3-dimethoxy-phenyl]-1-[1-(4-methyl-phenyl)-3,4-dihydro-1H-isoquinolin-2-yl]-propenone], the IC50 in assay [1] was 330 nM; in assay [2], 0.2 nM; in assay [3] it was 4.8 nM.

Consider `COc1cc(Cc2cnc(N)nc2N)cc(/C=C/C(=O)N2CCc3ccccc3C2c2ccc(O)cc2)c1OC` (racemic) [Example 21, (E)-(RS)-3-[5-(2,4-Diamino-pyrimidin-5-ylmethyl)-2,3-dimethoxy-phenyl]-1-[1-(4-hydroxy-phenyl)-3,4-dihydro-1H-isoquinolin-2-yl]-propenone], for which the IC50 is 380 nM in assay [1], 5.5 nM in assay [2] and 13 nM in assay [3].

In the case of `COc1cc(Cc2cnc(N)nc2N)cc(/C=C/C(=O)N2CCc3ccccc3C2c2ccc(C#N)cc2)c1OC` (racemic) [Example 23], the results for the IC50 in assay [1], in assay [2] and in assay [3] were 10000 nM, 0.5 nM and 0.9 nM, respectively.

With `COc1cc(Cc2cnc(N)nc2N)cc(/C=C/C(=O)N2CCc3ccccc3C2c2cccs2)c1OC` (racemic) [Example 27, (E)-(RS)-3-[5-(2,4-Diamino-pyrimidin-5-ylmethyl)-2,3-dimethoxy-phenyl]-1-(1-thiophen-2-yl-3,4-dihydro-1H-isoquinolin-2-yl)-propenone], the results for the IC50 in assay [1], in assay [2] and in assay [3] were 3800 nM, 1.6 nM and 1.8 nM, respectively.

For `COc1cc(Cc2cnc(N)nc2N)cc(/C=C/C(=O)N2CCc3ccccc3C2c2ccc(C)nc2)c1OC` (racemic) [Example 32, (E)-(RS)-3-[5-(2,4-Diamino-pyrimidin-5-ylmethyl)-2,3-dimethoxy-phenyl]-1-[1-(6-methyl-pyridin-3-yl)-3,4-dihydro-1H-isoquinolin-2-yl]-propenone], the IC50 in assay [1] worked out at 10000 nM; in assay [2], 1.8 nM; in assay [3] it was 1.3 nM.

On to `COc1cc(Cc2cnc(N)nc2N)cc(/C=C/C(=O)N2CCc3ccccc3C2c2ccc(Cl)cn2)c1OC` (racemic) [Example 34, (E)-(RS)-1-[1-(5-Chloro-pyridin-2-yl)-3,4-dihydro-1H-isoquinolin-2-yl]-3-[5-(2,4-diamino-pyrimidin-5-ylmethyl)-2,3-dimethoxy-phenyl]-propenone], for which the values for the IC50 in assay [1], in assay [2] and in assay [3] were 10000 nM, 2.4 nM and 1.7 nM, respectively.

On to `COc1cc(Cc2cnc(N)nc2N)cc(/C=C/C(=O)N2CCc3ccccc3C2c2ccc(Cl)nc2)c1OC` (racemic) [Example 36, (E)-(RS)-1-[1-(6-Chloro-pyridin-3-yl)-3,4-dihydro-1H-isoquinolin-2-yl]-3-[5-(2,4-diamino-pyrimidin-5-ylmethyl)-2,3-dimethoxy-phenyl]-propenone], for which the IC50 in assay [1] was 6200 nM; in assay [2], 0.8 nM; in assay [3] it was 3 nM.

On to `COc1cc(Cc2cnc(N)nc2N)cc(/C=C/C(=O)N2CCc3ccccc3C2c2ccc(C(N)=O)nc2)c1OC` (racemic) [Example 39, (E)-(R,S)-5-[2-[3-[5-(2,4-Diamino-pyrimidin-5-ylmethyl)-2,3-dimethoxy-phenyl]-acryloyl]-1,2,3,4-tetrahydro-isoquinolin-1-yl]-pyridine-2-carboxamide], for which the half-maximal inhibitory concentration (IC50) in assay [1] was 30000 nM; in assay [2], 1.2 nM; in assay [3], 1.8 nM.

`COc1cc(Cc2cnc(N)nc2N)cc(/C=C/C(=O)N2CCc3ccccc3C2c2ccc(S(C)(=O)=O)cc2)c1OC` (racemic) [Example 40, (E)-(R,S)-3-[5-(2,4-Diamino-pyrimidin-5-ylmethyl)-2,3-dimethoxy-phenyl]-1-[1-(4-methanesulphonyl-phenyl)-3,4-dihydro-1H-isoquinolin-2-yl]-propenone]: the IC50 stood at 550 nM in assay [1], 0.7 nM in assay [2] and 1.2 nM in assay [3].

Take `COc1cc(Cc2cnc(N)nc2N)cc(/C=C/C(=O)N2CCc3ccccc3[C@@H]2c2ccccn2)c1OC` [Example 1, (E)-(R)-3-[5-(2,4-diamino-pyrimidin-5-ylmethyl)-2,3-dimethoxy-phenyl]-1-(1-pyridin-2-yl-3,4-dihydro-1H-isoquinolin-2-yl)-propenone]: the IC50 in assay [1] was found to be 8000 nM; in assay [2], 5 nM; in assay [3] it was 8 nM.
